PubChem BioAssay AID1208 (EPA DSSTox, 2008)
Active and inactive are the calls of the source.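 How the source made its calls: active means at least one rat sex group has a carcinogenic potency value and tumor site recorded; inconclusive means only rat studies were judged inadequate by the national testing program; inactive means no potency or tumor site, with negative rat experiments.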

System: rat chronic carcinogenicity bioassay, TD50
Assay: DSSTox (CPDBAS) Carcinogenic Potency Database Summary Rat Bioassay Results
Details: for Potency: stronger effect = lower value
How it was run: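 Chronic long-term rat cancer bioassays from literature and NCI/NTP, taking the most positive result per sex. TD50 in mmol converted to a 1–100 Activity Score from log10(1/TD50). Mixtures lacking TD50 scored 50.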

[1] = TD50_Rat_Note: no positive results, TargetSites_Rat_Female: no positive results
[2] = TD50_Rat_Note: TD50 is harmonic mean of more than one positive test, TargetSites_Rat_Female: liver
[3] = TargetSites_Rat_Female: no positive results
[4] = TD50_Rat_Note: no positive results, TargetSites_Rat_BothSexes: no positive results
[5] = TD50_Rat_Note: no positive results

SMILES: O=C(N[C@H](CO)[C@H](O)c1ccc([N+](=O)[O-])cc1)C(Cl)Cl
- outcome [1]: inactive

SMILES: C1COCCO1
- Potency (TD50_Rat_Note: TD50 is harmonic mean of more than one positive test, greater than ten-fold variation among TD50 values for positive res, TargetSites_Rat_Female: liver, mammary gland, nasal cavity): 267 mg/kg/day

SMILES: Clc1ccc(C(c2ccc(Cl)cc2)C(Cl)(Cl)Cl)cc1
- Potency [2]: 84.7 mg/kg/day

SMILES: O.O=S(=O)([O-])[O-].[Mn+2]
- outcome [1]: inactive; no positive results

SMILES: Cn1c(N)nc2ncc(-c3ccccc3)cc21
- Potency (TD50_Rat_Note: TD50 is harmonic mean of more than one positive test, TargetSites_Rat_Female: large intestine, mammary gland): 1.78 mg/kg/day

SMILES: COc1ccc([N+](=O)[O-])cc1N
- Potency (TD50_Rat_Note: TD50 is harmonic mean of more than one positive test, TargetSites_Rat_Female: clitoral gland, skin): 53.9 mg/kg/day

SMILES: O=S(=O)(c1ccc(Cl)cc1)c1ccc(Cl)cc1
- outcome [1]: inactive; no positive results

SMILES: COC(=O)C1=C(C)NC(C)=C(C(=O)OCCc2ccc(N3CCN(C(c4ccccc4)c4ccccc4)CC3)cc2)C1c1cccc([N+](=O)[O-])c1 (stereo not drawn)
- outcome [1]: inactive; no positive results

SMILES: O=[N+]([O-])c1cc(N(CCO)CCO)ccc1NCCO
- outcome [1]: inactive; no positive results

SMILES: NC(=S)C(N)=S
- outcome [1]: inactive

SMILES: CNC[C@H](O)c1ccc(O)c(O)c1
- outcome (TD50_Rat_Note: only experiment is NCI/NTP bioassay inadequate, TargetSites_Rat_Female: NTP bioassay inadequate): ntp bioassay inadequate

SMILES: O=C(O)c1[nH]n(-c2ccc(S(=O)(=O)O)cc2)c(=O)c1N=Nc1ccc(S(=O)(=O)O)cc1
- outcome [1]: inactive; no positive results

SMILES: O=[N+]([O-])c1ccc2ncccc2c1
- outcome [1]: inactive; no positive results

SMILES: COC(=O)[C@H]1[C@H]2C[C@@H]3c4[nH]c5cc(OC)ccc5c4CCN3C[C@H]2C[C@@H](OC(=O)c2cc(OC)c(OC)c(OC)c2)[C@@H]1OC
- Potency [3]: 0.306 mg/kg/day

SMILES: CN1C(=O)CN=C(c2ccccc2)c2cc(Cl)ccc21
- outcome [1]: inactive; no positive results

SMILES: COP(=O)(OC)C(O)C(Cl)(Cl)Cl (stereo not drawn)
- outcome [4]: inactive

SMILES: O=S(=O)(O)c1cc(S(=O)(=O)O)c2c(N=Nc3ccc(S(=O)(=O)O)c4ccccc34)c(O)ccc2c1
- Potency (TargetSites_Rat_BothSexes: all tumor bearing animals): 24500 mg/kg/day

SMILES: CC[C@H](C)C(=O)O[C@H]1C[C@@H](C)C=C2C=C[C@H](C)[C@H](CC[C@@H]3C[C@@H](O)CC(=O)O3)[C@H]21
- outcome [1]: inactive; no positive results

SMILES: Brc1cc(Br)c2cccnc2c1
- outcome [1]: inactive; no positive results

SMILES: ClC=C(Cl)Cl
- Potency (TD50_Rat_Note: TD50 is harmonic mean of more than one positive test, TargetSites_Rat_Female: no positive results): 668 mg/kg/day
- outcome [1]: inactive; no positive results

SMILES: C=C1CC[C@H](O)C/C1=C/C=C1\CCC[C@]2(C)[C@@H]([C@H](C)CC[C@@H](O)C(C)(C)O)CC[C@@H]12
- outcome [5]: inactive; no positive results

SMILES: CCCCCN(N=O)C(=N)N[N+](=O)[O-]
- outcome [5]: inactive; no positive results

SMILES: Cc1cc(Cl)ccc1N
- outcome [1]: inactive; no positive results

SMILES: Cc1cnc2ccc3c(nc(N)n3C)c2n1
- Potency (TD50_Rat_Note: TD50 is harmonic mean of more than one positive test, TargetSites_Rat_Female: clitoral gland, ear Zymbals gland, liver): 1.66 mg/kg/day

SMILES: OCC1CO1 (stereo not drawn)
- Potency (TD50_Rat_Note: TD50 is harmonic mean of more than one positive test, TargetSites_Rat_Female: clitoral gland, hematopoietic system, mammary gland, nervous system, oral cavity, stomach, thyroid gland): 4.28 mg/kg/day

SMILES: Cc1cc2c(nc1N)[nH]c1ccccc12
- Potency: 6.7 mg/kg/day

SMILES: O=C(O)C(Cl)(Cl)Cl
- outcome [5]: inactive; no positive results

SMILES: O=c1[nH]cc(F)c(=O)[nH]1
- outcome [1]: inactive; no positive results

SMILES: Nc1ccc(N=Nc2ccc(-c3ccc(N=Nc4c(S(=O)(=O)O)cc5cc(S(=O)(=O)O)c(N=Nc6ccccc6)c(O)c5c4N)cc3)cc2)c(N)c1
- Potency [2]: 1.39 mg/kg/day

SMILES: CC(C)CCC[C@@H](C)[C@H]1CC[C@H]2[C@@H]3CC=C4C[C@@H](OC(=O)Cc5ccc(N(CCCl)CCCl)cc5)CC[C@]4(C)[C@H]3CC[C@]12C
- Potency (TargetSites_Rat_Female: mammary gland): 0.523 mg/kg/day

SMILES: CCCCC1(COC(=O)CCC(=O)O)C(=O)N(c2ccccc2)N(c2ccccc2)C1=O
- outcome [1]: inactive; no positive results

SMILES: C=CCO
- outcome [1]: inactive; no positive results

SMILES: S=C=NCCc1ccccc1
- outcome [5]: inactive; no positive results

SMILES: O=Cc1ccccc1
- outcome [1]: inactive; no positive results

SMILES: S=C1NCCN1
- Potency (TD50_Rat_Note: TD50 is harmonic mean of more than one positive test, greater than ten-fold variation among TD50 values for positive res, TargetSites_Rat_Female: thyroid gland, TargetSites_Rat_BothSexes: liver): 8.13 mg/kg/day

SMILES: CCC1(CCC(C)C)C(=O)NC(=O)NC1=O
- outcome [5]: inactive; no positive results

SMILES: N#CN=C(N)N
- outcome [1]: inactive; no positive results

SMILES: CC(=O)CN(CCO)N=O
- Potency (TargetSites_Rat_Female: liver): 1.8 mg/kg/day

SMILES: C=Cc1cccc(C)c1
- outcome [1]: inactive; no positive results

SMILES: CC/C(C)=N/O
- Potency [3]: 74.5 mg/kg/day

SMILES: O=[As](O)(O)O
- outcome [4]: inactive

SMILES: COc1cc(NC(=O)C(N=Nc2ccc(-c3ccc(N=NC(C(C)=O)C(=O)Nc4cc(OC)c(Cl)cc4OC)c(Cl)c3)cc2Cl)C(C)=O)c(OC)cc1Cl (stereo not drawn)
- outcome [4]: inactive
